# From patent publication EP0754193B1, “HEPATITIS C VIRUS CORE PEPTIDE FOR STIMULATION OF CYTOTOXIC T LYMPHOCYTES AND DIAGNOSIS OF HCV EXPOSURE” (priority 1994, dated 1995)
# Where no end group is shown, it is not given here.
# Tested on: 18Neo (H-2^d; class I MHC^+, class II MHC^- neomycin-resistance gene-transfected 3T3 fibroblast)
# Conditions: in the absence of CTL
sequence,measurement,value
GFADLMGYIPLVGAPL [Peptide C7],direct toxicity to the cells,not directly toxic
